Test results published in ChEMBL document CHEMBL1135985, “Synthesis, pharmacokinetics, efficacy, and rat retinal toxicity of a novel mitomycin C-triamcinolone acetonide conjugate” (J Med Chem, 2002).

What was measured:
[1] = tested on: NIH3T3; assay: Inhibition of NIH 3T3 cell growth required to induce 50% of maximum response using antiproliferative assay; format: functional, cell-based; conditions: Mus musculus
[2] = tested on: NIH3T3; assay: Maximal percent of fibroblast cell growth inhibition using antiproliferative assay; format: functional, Mus musculus

Compound	IC50 [1]	Inhibition [2]
CC1(C)O[C@@H]2C[C@H]3[C@@H]4CCC5=CC(=O)C=C[C@]5(C)[C@@]4(F)[C@@H](O)C[C@]3(C)[C@]2(C(=O)CO)O1 [TRIAMCINOLONE ACETONIDE]	2500 nM	25%
CC1(C)O[C@@H]2CC3C4CCC5=CC(=O)C=C[C@]5(C)[C@@]4(F)[C@@H](O)C[C@]3(C)[C@]2(C(=O)CO)O1.CO[C@@]12[C@H](COC(N)=O)C3=C(C(=O)C(C)=C(N)C3=O)N1C[C@@H]1N[C@@H]12 (stereo partly drawn) [MIXTURE OF MMC AND TA]	1600 nM	83%
CO[C@@]12[C@H](COC(N)=O)C3=C(C(=O)C(C)=C(N)C3=O)N1C[C@@H]1N[C@@H]12 [MITOMYCIN]	1700 nM	88%
CO[C@@]12[C@H](COC(N)=O)C3=C(C(O)=C(C)C(=N)C3=O)N1C[C@H]1[C@@H]2N1C(=O)CCCC(=O)OCC(=O)[C@@]12OC(C)(C)O[C@@H]1CC1C3CCC4=CC(=O)C=C[C@]4(C)[C@@]3(F)[C@@H](O)C[C@@]12C (stereo partly drawn)	2400 nM	67%
